According to US8916204B2, “SPARC and methods of use thereof” (Abraxis BioScience, LLC, priority 2004, dated 2014):

Tested on: endothelial monolayers (gp60-mediated caveolar transcytosis)
Assay: inhibition of transport of paclitaxel from ABX across endothelial monolayers
Format: in vitro ADME, human
Description: Transport was dependent on albumin.

| Compound | effect on transport of paclitaxel from ABX |
| --- | --- |
| […]-methyl cyclodextrin [BMC] | inhibited |
| CCN1C(=O)C=CC1=O [NEM] | inhibited |
